Results from ChEMBL document CHEMBL5241112, “Insights into the recent progress in the medicinal chemistry of pyranopyrimidine analogs” (RSC Med Chem, 2022).
In brackets after ≈: the same amount, converted by molar mass.

Experiments:
A549 = test: Anticancer activity against human A549 cells assessed as reduction in cell viability incubated for 24 hrs by MTT assay; type: functional, cell-based; settings: A549, 24 h
[1] = target: T1, Free fatty acid receptor 3 (Homo sapiens, UniProt O14843); test: Agonist activity at FFA3 (unknown origin) expressed in human Flp-In-293 cells assessed as inhibition of forskolin-stimulated cAMP accumulation incubated for 30 mins by Lance cAMP assay; type: cell-based
T1 sequence (O14843 whole entry): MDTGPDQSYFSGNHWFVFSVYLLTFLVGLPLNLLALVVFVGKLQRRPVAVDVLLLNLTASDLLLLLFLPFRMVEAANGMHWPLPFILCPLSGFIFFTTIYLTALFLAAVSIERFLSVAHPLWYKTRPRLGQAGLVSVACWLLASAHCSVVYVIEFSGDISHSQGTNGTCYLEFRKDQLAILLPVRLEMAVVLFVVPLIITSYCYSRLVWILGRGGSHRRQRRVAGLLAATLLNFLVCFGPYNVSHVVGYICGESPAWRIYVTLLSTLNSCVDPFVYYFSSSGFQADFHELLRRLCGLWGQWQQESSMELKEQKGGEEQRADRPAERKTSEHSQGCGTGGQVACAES

[2] = target: Hydroxycarboxylic acid receptor 2 (Homo sapiens, UniProt Q8TDS4); test: Agonist activity at human HCA2 expressed in human Flp-In-293 cells assessed as inhibition of forskolin-stimulated cAMP accumulation incubated for 30 mins by Lance cAMP assay; type: cell-based
Staphylococcus aureus [3] = test: Antimicrobial activity against Staphylococcus aureus assessed as diameter of inhibition zone at 1 mg/ml incubated for 48 hrs by agar disk diffusion method; type: functional; settings: read-out: DIZ
Bacillus cereus = test: Antimicrobial activity against Bacillus cereus assessed as diameter of inhibition zone at 1 mg/ml incubated for 48 hrs by agar disk diffusion method; type: functional; settings: read-out: DIZ
Escherichia coli [4] = test: Antimicrobial activity against Escherichia coli assessed as diameter of inhibition zone at 1 mg/ml incubated for 48 hrs by agar disk diffusion method; type: functional; settings: read-out: DIZ
Klebsiella pneumoniae [5] = test: Antimicrobial activity against Klebsiella pneumoniae assessed as diameter of inhibition zone at 1 mg/ml incubated for 48 hrs by agar disk diffusion method; type: functional; settings: read-out: DIZ
Pseudomonas aeruginosa [6] = test: Antimicrobial activity against Pseudomonas aeruginosa assessed as diameter of inhibition zone at 1 mg/ml incubated for 48 hrs by agar disk diffusion method; type: functional; settings: read-out: DIZ
Aspergillus niger [7] = test: Antifungal activity against Aspergillus niger assessed as diameter of inhibition zone at 1 mg/ml incubated for 72 to 91 hrs by agar disk diffusion method; type: functional; settings: time 72-91 hrs, read-out: DIZ
Penicillium chrysogenum = test: Antifungal activity against Penicillium chrysogenum assessed as diameter of inhibition zone at 1 mg/ml incubated for 72 to 91 hrs by agar disk diffusion method; type: functional; settings: time 72-91 hrs, read-out: DIZ
Escherichia coli [8] = test: Antibacterial activity against Escherichia coli MTCC 723 assessed as diameter of inhibition zone at 0.1 mg/ml incubated for 24 hrs by agar well diffusion method; type: functional; settings: read-out: DIZ
Aspergillus flavus [9] = test: Antifungal activity against Aspergillus flavus assessed as fungal growth inhibition by broth microdilution method; type: functional
Candida albicans [10] = test: Antifungal activity against Candida albicans assessed as fungal growth inhibition by broth microdilution method; type: functional
Plasmodium falciparum = test: microbe, parasite or virus in culture
Staphylococcus aureus [11] = test: Antibacterial activity against Staphylococcus aureus assessed as bacterial growth inhibition by broth microdilution method; type: functional
Escherichia coli [12] = test: Antibacterial activity against Escherichia coli assessed as bacterial growth inhibition by broth microdilution method; type: functional
Klebsiella pneumoniae [13] = test: Antibacterial activity against Klebsiella pneumoniae assessed as bacterial growth inhibition by broth microdilution method; type: functional
Pseudomonas aeruginosa [14] = test: Antibacterial activity against Pseudomonas aeruginosa assessed as bacterial growth inhibition by broth microdilution method; type: functional
Staphylococcus aureus [15] = test: Antibacterial activity against Staphylococcus aureus assessed as diameter of inhibition zone; type: functional
Bacillus subtilis = test: Antibacterial activity against Bacillus subtilis assessed as diameter of inhibition zone; type: functional
Escherichia coli [16] = test: Antibacterial activity against Escherichia coli assessed as diameter of inhibition zone; type: functional
Salmonella typhimurium = test: Antibacterial activity against Salmonella typhimurium assessed as diameter of inhibition zone; type: functional, Salmonella enterica subsp. enterica serovar Typhimurium
Candida albicans [17] = test: Antifungal activity against Candida albicans assessed as inhibition of fungal growth; type: functional
Aspergillus niger [18] = test: Antifungal activity against Aspergillus niger assessed as inhibition of fungal growth; type: functional
Aspergillus flavus [19] = test: Antifungal activity against Aspergillus flavus assessed as inhibition of fungal growth; type: functional
Urease = Urease (Canavalia ensiformis, UniProt P07374); test: Inhibition of jack bean urease by phenol red method
Alpha-glucosidase = Alpha-glucosidase (Saccharomyces cerevisiae S288c, UniProt P53341+P38158+P07265); test: Inhibition of Saccharomyces cerevisiae alpha-glucosidase preincubated for 5 mins followed by PNP-GLUC substrate addition and measured after 20 mins by spectroscopic analysis; type: protein assay
Albumin = Albumin (Bos taurus, UniProt P02769); test: […] bovine serum albumin denaturation incubated for 23 mins by UV-Visible spectrophotometry
[20] = Inhibition of porcine pancreatic alpha-amylase preincubated for 10 mins followed by substrate starch addition and measured after 10 mins by colorimetric analysis; set-up: species or system Sus scrofa
Staphylococcus aureus [21] = test: Antibacterial activity against Staphylococcus aureus MLS-16 MTCC 2940 assessed as bacterial growth inhibition incubated for 24 hrs by broth microdilution method; type: functional

Sequence of Hydroxycarboxylic acid receptor 2 (Q8TDS4 whole entry, the tested form may be a part): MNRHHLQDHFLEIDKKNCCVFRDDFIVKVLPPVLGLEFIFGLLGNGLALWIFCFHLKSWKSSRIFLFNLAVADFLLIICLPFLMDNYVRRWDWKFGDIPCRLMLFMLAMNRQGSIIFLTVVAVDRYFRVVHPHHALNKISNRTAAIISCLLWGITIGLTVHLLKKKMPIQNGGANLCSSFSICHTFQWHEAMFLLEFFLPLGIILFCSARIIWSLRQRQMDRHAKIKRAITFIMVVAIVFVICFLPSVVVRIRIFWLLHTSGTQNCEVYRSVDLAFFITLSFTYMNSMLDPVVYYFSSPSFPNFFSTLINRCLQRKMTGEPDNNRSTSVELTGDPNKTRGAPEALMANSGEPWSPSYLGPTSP
Sequence of Urease (P07374 whole entry): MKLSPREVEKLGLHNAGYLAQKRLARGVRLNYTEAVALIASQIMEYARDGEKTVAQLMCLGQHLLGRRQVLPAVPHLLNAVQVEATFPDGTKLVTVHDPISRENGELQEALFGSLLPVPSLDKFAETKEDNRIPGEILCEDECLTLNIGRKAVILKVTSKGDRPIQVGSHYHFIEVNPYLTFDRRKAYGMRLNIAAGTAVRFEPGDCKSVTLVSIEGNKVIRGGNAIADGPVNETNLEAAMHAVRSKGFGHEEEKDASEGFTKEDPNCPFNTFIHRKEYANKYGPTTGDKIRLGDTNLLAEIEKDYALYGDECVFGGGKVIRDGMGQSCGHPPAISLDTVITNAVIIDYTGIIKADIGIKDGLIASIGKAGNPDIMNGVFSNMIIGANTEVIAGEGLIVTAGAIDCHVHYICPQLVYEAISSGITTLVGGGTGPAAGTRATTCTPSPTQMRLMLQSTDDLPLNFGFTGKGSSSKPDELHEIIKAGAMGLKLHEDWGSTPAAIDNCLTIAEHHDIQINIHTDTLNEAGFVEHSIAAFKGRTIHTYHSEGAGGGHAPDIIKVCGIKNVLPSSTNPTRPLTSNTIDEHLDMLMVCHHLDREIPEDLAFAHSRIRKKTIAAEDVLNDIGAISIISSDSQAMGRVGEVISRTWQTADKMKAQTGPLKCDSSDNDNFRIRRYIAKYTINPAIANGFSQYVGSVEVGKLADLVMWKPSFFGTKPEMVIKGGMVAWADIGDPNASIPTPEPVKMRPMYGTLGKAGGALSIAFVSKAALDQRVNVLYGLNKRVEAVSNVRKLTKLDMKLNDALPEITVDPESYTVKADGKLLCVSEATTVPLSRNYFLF
Sequence of Albumin (P02769 whole entry): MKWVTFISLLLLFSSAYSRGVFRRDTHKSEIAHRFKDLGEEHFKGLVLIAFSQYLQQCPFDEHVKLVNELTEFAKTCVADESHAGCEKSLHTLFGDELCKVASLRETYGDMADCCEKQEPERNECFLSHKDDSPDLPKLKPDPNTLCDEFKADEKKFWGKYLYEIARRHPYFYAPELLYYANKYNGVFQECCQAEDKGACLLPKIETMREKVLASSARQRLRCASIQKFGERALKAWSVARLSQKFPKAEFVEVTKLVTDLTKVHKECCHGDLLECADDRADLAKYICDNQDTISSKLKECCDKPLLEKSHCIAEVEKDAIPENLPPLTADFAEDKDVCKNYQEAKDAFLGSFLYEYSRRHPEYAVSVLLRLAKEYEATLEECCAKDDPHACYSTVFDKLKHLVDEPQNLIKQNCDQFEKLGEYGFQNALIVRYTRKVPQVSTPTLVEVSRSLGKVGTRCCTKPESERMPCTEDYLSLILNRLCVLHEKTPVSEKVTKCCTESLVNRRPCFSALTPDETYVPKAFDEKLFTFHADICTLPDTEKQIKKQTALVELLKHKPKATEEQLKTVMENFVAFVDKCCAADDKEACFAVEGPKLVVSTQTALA

`CCOC(=O)C1=C(C)Oc2nc(C)n(Cc3cn(-c4ccc(OC)cc4[N+](=O)[O-])nn3)c(=O)c2C1c1ccccc1` (stereo not given) showed an IC50 (A549) of 5.76 µM.

With `Cc1cc(=O)oc2[nH]c(=S)[nH]c(=O)c12` the EC50 [1] was 0.22 µM and the EC50 [2] was 0.051 µM.

Compound `COC(=O)C1=C(N)Oc2[nH]c(=S)[nH]c(=O)c2C1c1ccc([N+](=O)[O-])cc1` (stereo not given) has a zone of inhibition at 1000 µg/mL (Staphylococcus aureus [3]) of 17 mm, a zone of inhibition at 1000 µg/mL (Bacillus cereus) of 21 mm and a zone of inhibition at 1000 µg/mL (Escherichia coli [4]) of 17 mm. It also gave a zone of inhibition at 1000 µg/mL (Klebsiella pneumoniae [5]) of 17 mm, a zone of inhibition at 1000 µg/mL (Pseudomonas aeruginosa [6]) of 20 mm and a zone of inhibition at 1000 µg/mL (Aspergillus niger [7]) of 23 mm. For the same compound, the zone of inhibition at 1000 µg/mL (Penicillium chrysogenum) was 12 mm.

In the case of `C1=COc2ncncc2C1`, the zone of inhibition at 100 µg/mL (Escherichia coli [8]) is reported as 13.1 mm.

With `OC(Cn1cncn1)(Cn1cncn1)c1ccc(F)cc1F` [FLUCONAZOLE] the MIC (Aspergillus flavus [9]) was 1.56 µg/mL (≈ 5.09 µM) and the MIC (Candida albicans [10]) was 1.56 µg/mL (≈ 5.09 µM).

With `C=C[C@H]1CN2CC[C@H]1C[C@H]2[C@H](O)c1ccnc2ccc(OC)cc12` [QUININE] the IC50 (Plasmodium falciparum) was 0.268 µg/mL (≈ 0.826 µM).

In the case of `COC(=O)C1=C(N)Oc2[nH]c(=S)[nH]c(=O)c2C1c1ccccc1Cl` (stereo not given), the zone of inhibition at 1000 µg/mL (Staphylococcus aureus [3]) is reported as 11 mm, the zone of inhibition at 1000 µg/mL (Escherichia coli [4]) is reported as 9 mm and the zone of inhibition at 1000 µg/mL (Pseudomonas aeruginosa [6]) is reported as 4 mm. It also gave a zone of inhibition at 1000 µg/mL (Aspergillus niger [7]) of 0 mm and a zone of inhibition at 1000 µg/mL (Penicillium chrysogenum) of 0 mm.

For `COC(=O)C1=C(N)Oc2[nH]c(=S)[nH]c(=O)c2C1c1ccc(C)cc1` (stereo not given), the zone of inhibition at 1000 µg/mL (Staphylococcus aureus [3]) was 15 mm, the zone of inhibition at 1000 µg/mL (Bacillus cereus) was 12 mm and the zone of inhibition at 1000 µg/mL (Escherichia coli [4]) was 16 mm. For the same compound, the zone of inhibition at 1000 µg/mL (Klebsiella pneumoniae [5]) was 19 mm, the zone of inhibition at 1000 µg/mL (Pseudomonas aeruginosa [6]) was 21 mm and the zone of inhibition at 1000 µg/mL (Aspergillus niger [7]) was 23 mm. It also gave a zone of inhibition at 1000 µg/mL (Penicillium chrysogenum) of 23 mm.

Compound `CCO/C=N/C1=C(C#N)C(c2ccccc2F)c2c(n(C)c(=O)n(C)c2=O)O1` (stereo not given) has an MIC (Staphylococcus aureus [11]) of 6.25 µg/mL (≈ 16.3 µM), an MIC (Escherichia coli [12]) of 6.25 µg/mL (≈ 16.3 µM) and an MIC (Klebsiella pneumoniae [13]) of 6.25 µg/mL (≈ 16.3 µM). It also gave an MIC (Pseudomonas aeruginosa [14]) of 6.25 µg/mL (≈ 16.3 µM), an MIC (Aspergillus flavus [9]) of 6.25 µg/mL (≈ 16.3 µM) and an MIC (Candida albicans [10]) of 6.25 µg/mL (≈ 16.3 µM).

Compound `O=c1[nH]c(=O)c2c(CCCCCl)cc(=O)oc2[nH]1` has an EC50 [2] of 0.051 µM.

`CCO/C=N/C1=C(C#N)C(c2ccc(F)cc2)c2c(n(C)c(=O)n(C)c2=O)O1` (stereo not given) gave an MIC (Staphylococcus aureus [11]) of 6.25 µg/mL (≈ 16.3 µM), an MIC (Escherichia coli [12]) of 6.25 µg/mL (≈ 16.3 µM) and an MIC (Klebsiella pneumoniae [13]) of 6.25 µg/mL (≈ 16.3 µM). It also gave an MIC (Pseudomonas aeruginosa [14]) of 6.25 µg/mL (≈ 16.3 µM), an MIC (Aspergillus flavus [9]) of 3.12 µg/mL (≈ 8.12 µM) and an MIC (Candida albicans [10]) of 3.12 µg/mL (≈ 8.12 µM).

`CCOC(=O)C1=C(C)Oc2nc(C)n(Cc3cn(-c4ccc(C(C)=O)cc4)nn3)c(=O)c2C1c1ccccc1` (stereo not given) gave an IC50 (A549) of 6.74 µM.

For `N#CC1=C(N)Oc2[nH]c(=O)[nH]c(=O)c2C1c1ccc(Cl)cc1` (stereo not given), the “diameter of the inhibition zone (DIZ)” value (Staphylococcus aureus [15]) was 18 mm, the “diameter of the inhibition zone (DIZ)” value (Bacillus subtilis) was 16 mm and the “diameter of the inhibition zone (DIZ)” value (Escherichia coli [16]) was 16 mm. The “diameter of the inhibition zone (DIZ)” value (Salmonella typhimurium) was 20 mm, the MIC (Candida albicans [17]) was 125 µg/mL (≈ 395 µM) and the MIC (Aspergillus niger [18]) was 162 µg/mL (≈ 513 µM). It also gave an MIC (Aspergillus flavus [19]) of 150 µg/mL (≈ 474 µM) and an IC50 (Urease) of 49.7 µM.

Work on `O=c1cc(CCCCCl)c2c(=O)[nH]c(=S)[nH]c2o1` yielded an EC50 [1] of 0.22 µM and an EC50 [2] of 0.051 µM.

`O=C(C1=C(c2ccccc2O)Oc2[nH]c(=S)[nH]c(=O)c2C1c1ccccc1)N1CCCCC1` (stereo not given) gave a zone of inhibition at 100 µg/mL (Escherichia coli [8]) of 13.1 mm, an IC50 (Alpha-glucosidase) of 7745 µM and an IC50 (Albumin) of 19.9 µM. It also gave an IC50 [20] of 22.1 µM.

Work on `Cc1cc2c(c(=O)o1)C(c1ccccc1)c1c(Nc3ccc(Cl)cc3)ncnc1O2` (stereo not given) yielded an MIC (Staphylococcus aureus [21]) of 15.6 µg/mL (≈ 37.3 µM).

In the case of `CCCCc1cc(=O)oc2[nH]c(=S)[nH]c(=O)c12`, the EC50 [1] is reported as 0.22 µM and the EC50 [2] is reported as 0.051 µM.

For `CCO/C=N/C1=C(C#N)C(c2ccc(Cl)cc2)c2c(n(C)c(=O)n(C)c2=O)O1` (stereo not given), the MIC (Staphylococcus aureus [11]) was 6.25 µg/mL (≈ 15.6 µM), the MIC (Escherichia coli [12]) was 6.25 µg/mL (≈ 15.6 µM) and the MIC (Klebsiella pneumoniae [13]) was 6.25 µg/mL (≈ 15.6 µM). The MIC (Pseudomonas aeruginosa [14]) was 6.25 µg/mL (≈ 15.6 µM), the MIC (Aspergillus flavus [9]) was 3.12 µg/mL (≈ 7.78 µM) and the MIC (Candida albicans [10]) was 3.12 µg/mL (≈ 7.78 µM).

Compound `COC(=O)C1=C(N)Oc2[nH]c(=S)[nH]c(=O)c2C1c1ccc(O)cc1` (stereo not given) has a zone of inhibition at 1000 µg/mL (Staphylococcus aureus [3]) of 21 mm, a zone of inhibition at 1000 µg/mL (Bacillus cereus) of 18 mm and a zone of inhibition at 1000 µg/mL (Escherichia coli [4]) of 21 mm. For the same compound, the zone of inhibition at 1000 µg/mL (Klebsiella pneumoniae [5]) was 22 mm, the zone of inhibition at 1000 µg/mL (Pseudomonas aeruginosa [6]) was 18 mm and the zone of inhibition at 1000 µg/mL (Aspergillus niger [7]) was 23 mm. The zone of inhibition at 1000 µg/mL (Penicillium chrysogenum) was 23 mm.
